The target of assay [1] is T1, full length active recombinant SYK enzyme (Homo sapiens, UniProt P43405).
T1 construct: full length active recombinant SYK enzyme (Millipore, Calif.); purchased Millipore
The assay can be described thus: Inhibition of Syk tyrosine phosphorylation activity (LANCE TR-FRET). The following applies: 1 nM SYK, 100 μM ATP. Type of assay: biochemical. The method, boiled down:
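The reaction is quenched with buffer holding Eu-anti-phosphotyrosine and streptavidin-APC, and detection runs 1 hr at room temperature. TR-FRET is read and IC50s come from non-linear regression.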
Background: In TR-FRET formats the signal depends on donor and acceptor labels being close together.

In assay [2] the test system is human platelet-rich plasma (PRP). The assay can be described thus: Inhibition of Convulxin-mediated platelet aggregation in vitro (PRP). The class given is cell-based. The note with it: Table 4, Convulxin-induced aggregation in human PRP, unit inferred. The method, then: The ability for candidate molecules to inhibit syk-mediated platelet functions are tested by measuring the inhibition the GPVI-specific agonist Convulxin-induced human platelet calcium-mobilization or aggregation. Calcium-mobilization is assessed in human washed platelets in a 96-well microtiter format.
Inhibition of Convulxin-Mediated Platelet Aggregation In Vitro
Platelet-rich plasma (PRP) is prepared by centrifugation of whole blood at 160×g for 20 minutes at room temperature. The PRP layer is removed, transferred to a new tube, and the platelet count is adjusted, if advantageous, to achieve a platelet concentration of ˜3×10^8 platelets/ml using platelet-poor plasma (PPP). PPP is prepared by centrifugation of the remaining blood sample (after removal of PRP) for 20 minutes at 800×g. This preparation of PRP can subsequently be used for aggregation assays in either a 96-well plate or standard cuvette aggregometry.
Inhibition of Convulxin-induced aggregation is determined in 96-well flat-bottom microtiter plates using a microtiter plate shaker and plate reader similar to the procedure described by Frantantoni et al., Am. J. Clin. Pathol. […] All steps are performed at room temperature. For 96-well plate aggregation using platelet-rich plasma (PRP), the total reaction volume of 0.2 ml/well includes 190 μl of PRP (˜3×10^8 platelets/ml, see above), and 5 μl of either serial dilution of test compounds in 30% DMSO or buffer (for control wells). After 20 minutes preincubation at room temperature 5 μl of 320 ng/ml Convulxin agonist solution is added to each well to give a final concentration of 8 ng/ml Convulxin. The plates are then agitated for 5 min on a microtiter plate shaker and the 5 minute reading is obtained in the microtitre plate reader (Softmax, Molecular Devices, Menlo Park, Calif.). Aggregation is calculated from the decrease of OD at 650 nm at t=5 minutes. IC50s were derived by non-linear regression analysis.
Inhibition of Convulxin-induced aggregation was also determined for cuvette light transmittance aggregation assays, serial dilutions (1:2) of test compounds were prepared in 30% DMSO in a 96 well V-bottom plate (final DMSO concentration in the cuvette was 0.3%). […] IC50s were derived by non-linear regression analysis.

Assay [3] deals with SUDHL-4 and SUDHL-6 cells. The following applies: Chen, Monti et al. 2008; cited from earlier work.
For assay [4], the system named is Toledo and Karpas-422 cell lines. The following applies: Chen, Monti et al. 2008; cited from earlier work.
Assay [5] has as its target T2, Purified human JAK3 (Homo sapiens, UniProt P52333).
T2 construct: purchased Millipore Upstate KinaseProfiler; host or cells: insect cells
The assay is described as follows: Millipore Upstate KinaseProfiler screening, JAK3 catalytic activity. Type of assay: biochemical. The following applies: for IC50: Table 5, read-out: Inhibition (IC50%) of catalytic activity of JAK 3; for inhibition at 0.3 µM: 0.3 μM compound. The protocol:
This assay is a direct measurement of the effect of compound on the catalytic activity of JAK3. Purified human JAK3 (GenBank AF513860) sequence (residue 781-C terminus) was obtained from insect cells. The catalytic hydrolysis of ATP is measured using a radiometric filter binding method. Incubation of kinase with ^33-[P]ATP and substrate leads to incorporation of ^33[P] into the substrate which can then be separated from the other reaction components by filtration. Assays were performed using 10 μM ATP and in the absence or presence of 1, 0.3, or 0.1 μM compound. Activity was expressed as % of inhibition of control.
In the table below, activity in the Jak assays is provided as follows: +++++=IC50<0.0010 μM; ++++=0.0010 μM<IC50<0.010 μM, +++=0.010 μM<IC50<0.10 μM, ++=0.10 μM<IC50<1 μM, +=IC50>1 μM.

Assay [6] has as its target T3, JAK2 (Homo sapiens, UniProt O60674).
T3 construct: purchased Millipore Upstate KinaseProfiler
The assay can be described thus: Millipore Upstate KinaseProfiler screening, JAK2 catalytic activity. The following applies: Table 5; read-out: Inhibition (IC50%) of catalytic activity of JAK 2. The class given is biochemical.

Assay [7] addresses T4, JAK1 (Homo sapiens, UniProt P23458).
T4 construct: purchased Millipore Upstate KinaseProfiler
The assay is described as follows: Millipore Upstate KinaseProfiler screening, JAK1 catalytic activity. Type of assay: biochemical. The note with it: Table 5; read-out: Inhibition (IC50%) of catalytic activity of JAK 1.

The mark [8] stands for this setting: Table 3, read-out: Syk IC50 code.

Each structure is given as a SMILES string. Read-outs that look alike come from different tables or passages of the source.

T3 sequence (O60674 whole entry): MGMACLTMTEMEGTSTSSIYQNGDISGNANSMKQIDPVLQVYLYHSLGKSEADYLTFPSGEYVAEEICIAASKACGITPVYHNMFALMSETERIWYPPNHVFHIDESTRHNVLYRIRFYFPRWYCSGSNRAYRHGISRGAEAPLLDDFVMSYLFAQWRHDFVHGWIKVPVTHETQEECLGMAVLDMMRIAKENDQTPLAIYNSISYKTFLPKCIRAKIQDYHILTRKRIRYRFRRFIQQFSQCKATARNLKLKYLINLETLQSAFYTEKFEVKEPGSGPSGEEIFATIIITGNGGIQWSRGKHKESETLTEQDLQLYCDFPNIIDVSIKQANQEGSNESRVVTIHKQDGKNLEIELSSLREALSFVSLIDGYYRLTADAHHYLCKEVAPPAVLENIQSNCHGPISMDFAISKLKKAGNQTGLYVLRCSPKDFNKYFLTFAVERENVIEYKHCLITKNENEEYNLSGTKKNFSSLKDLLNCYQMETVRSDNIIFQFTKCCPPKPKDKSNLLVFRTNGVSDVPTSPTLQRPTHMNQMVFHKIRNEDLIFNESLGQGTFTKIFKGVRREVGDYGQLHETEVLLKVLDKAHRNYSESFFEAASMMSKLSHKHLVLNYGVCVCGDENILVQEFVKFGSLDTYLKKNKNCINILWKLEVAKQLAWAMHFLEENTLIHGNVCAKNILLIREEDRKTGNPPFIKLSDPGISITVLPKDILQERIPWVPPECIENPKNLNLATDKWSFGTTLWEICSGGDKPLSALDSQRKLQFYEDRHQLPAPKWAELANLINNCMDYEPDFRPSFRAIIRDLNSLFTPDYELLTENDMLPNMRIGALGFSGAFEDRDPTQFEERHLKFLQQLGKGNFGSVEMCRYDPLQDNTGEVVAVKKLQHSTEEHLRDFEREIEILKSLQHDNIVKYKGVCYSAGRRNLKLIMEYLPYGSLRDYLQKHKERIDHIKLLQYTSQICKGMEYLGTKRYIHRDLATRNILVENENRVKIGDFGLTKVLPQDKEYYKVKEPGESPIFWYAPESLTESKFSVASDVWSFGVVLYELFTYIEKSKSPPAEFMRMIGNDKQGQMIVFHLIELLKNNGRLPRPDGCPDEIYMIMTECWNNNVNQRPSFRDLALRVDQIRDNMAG
T4 sequence (P23458 whole entry): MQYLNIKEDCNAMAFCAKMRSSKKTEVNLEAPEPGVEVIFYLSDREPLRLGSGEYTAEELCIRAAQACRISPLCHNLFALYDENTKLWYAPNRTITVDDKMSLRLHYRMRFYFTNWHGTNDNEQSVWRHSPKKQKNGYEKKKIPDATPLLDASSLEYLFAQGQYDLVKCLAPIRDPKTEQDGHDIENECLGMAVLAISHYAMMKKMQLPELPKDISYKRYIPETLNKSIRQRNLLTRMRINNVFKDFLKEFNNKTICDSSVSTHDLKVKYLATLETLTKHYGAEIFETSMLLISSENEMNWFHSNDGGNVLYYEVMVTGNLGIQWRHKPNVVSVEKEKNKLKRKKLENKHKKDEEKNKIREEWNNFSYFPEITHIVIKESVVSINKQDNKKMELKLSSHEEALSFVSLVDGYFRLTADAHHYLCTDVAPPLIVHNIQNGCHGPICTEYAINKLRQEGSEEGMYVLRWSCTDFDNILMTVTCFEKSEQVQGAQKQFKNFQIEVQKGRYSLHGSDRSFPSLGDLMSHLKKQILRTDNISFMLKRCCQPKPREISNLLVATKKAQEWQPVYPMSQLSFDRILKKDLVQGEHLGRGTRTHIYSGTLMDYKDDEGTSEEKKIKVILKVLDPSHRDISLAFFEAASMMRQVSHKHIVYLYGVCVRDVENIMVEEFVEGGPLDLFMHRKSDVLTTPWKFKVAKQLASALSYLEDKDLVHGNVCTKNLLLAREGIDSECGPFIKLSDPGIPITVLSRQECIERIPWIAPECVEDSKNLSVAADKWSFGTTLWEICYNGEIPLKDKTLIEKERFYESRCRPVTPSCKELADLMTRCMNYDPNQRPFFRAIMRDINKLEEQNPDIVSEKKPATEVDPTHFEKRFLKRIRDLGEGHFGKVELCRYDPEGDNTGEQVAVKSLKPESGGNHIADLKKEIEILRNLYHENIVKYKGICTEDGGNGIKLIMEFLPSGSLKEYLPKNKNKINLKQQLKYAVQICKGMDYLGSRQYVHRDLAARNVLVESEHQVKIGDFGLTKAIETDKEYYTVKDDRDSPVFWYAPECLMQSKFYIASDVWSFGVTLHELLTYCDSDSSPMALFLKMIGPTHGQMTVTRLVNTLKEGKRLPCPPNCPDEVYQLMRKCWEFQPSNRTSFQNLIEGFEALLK
T2 sequence (P52333 781-1124 limits assumed): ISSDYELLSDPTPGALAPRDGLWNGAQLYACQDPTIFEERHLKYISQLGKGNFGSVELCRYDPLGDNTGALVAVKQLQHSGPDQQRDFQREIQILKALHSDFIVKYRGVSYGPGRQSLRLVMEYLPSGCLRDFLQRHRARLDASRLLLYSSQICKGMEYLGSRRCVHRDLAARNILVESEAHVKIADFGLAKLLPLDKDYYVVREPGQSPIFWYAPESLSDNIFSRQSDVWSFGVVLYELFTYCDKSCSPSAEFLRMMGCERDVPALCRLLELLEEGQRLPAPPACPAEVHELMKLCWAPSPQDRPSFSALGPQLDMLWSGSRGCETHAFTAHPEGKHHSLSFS

By IC50 is commonly meant the point on the concentration scale where inhibition reaches its midpoint. As to `CC(=O)N1CCN(c2ccc(Nc3nc(N4CCC[C@H](N)C4)c4cc[nH]c4n3)cc2)CC1` [(S)-1-(4-(4-(4-(3-aminopiperidin-1-yl)-7H-pyrrolo[2,3-d]pyrimidin-2-ylamino)phenyl)piperazin-1-yl)ethanone], the IC50 in assay [1] (Table 4, read-out: syk IC50) was 0.1 to 1 µM; in assay [2], 13.8 µM.

For the compound `COc1cc(Nc2ncc(F)c(Nc3ccc4c(n3)NC(=O)C(C)(C)O4)n2)cc(OC)c1OC` [Example R406], the “Sensitivity to Syk inhibition by R406” value in assay [3] was “sensitive”. Also, the “Sensitivity to R406” value in assay [4] is “insensitive”.

Regarding `N#Cc1c[nH]c2nc(Nc3ccc(S(N)(=O)=O)cc3)nc(NC3CC3)c12` [drawing 210], the IC50 in assay [5], in assay [6] and in assay [7] was 0.01 to 0.1 µM each time.

As to `CC(=O)N1CCN(c2ccc(Nc3nc(N4CCC(CN)CC4)c4c(C#N)c[nH]c4n3)cc2)CC1` [Example 14, 2-(4-(4-acetylpiperazin-1-yl)phenylamino)-4-(4-(aminomethyl)piperidin-1-yl)-7H-pyrrolo[2,3-d]pyrimidine-5-carbonitrile], the 50% inhibitory concentration (IC50) in assay [1] (setting [8]) was 0.01 to 0.1 µM; in assay [1] (Table 4, read-out: syk IC50), 0.01 to 0.1 µM; in assay [2], 50 µM.

As to `NC(=O)c1c[nH]c2nc(Nc3ccc4c(c3)CCC(=O)N4)nc(NC3CC3)c12` [drawing 211], the values for the half-maximal inhibitory concentration (IC50) in assay [5], in assay [6] and in assay [7] were > 1 µM, 0.1 to 1 µM and > 1 µM, respectively.

Turning to `c1cc2c(NC3CC3)nc(Nc3ccc4cn[nH]c4c3)nc2[nH]1` [drawing 204], the half-inhibitory concentration (IC50) in assay [5], in assay [6] and in assay [7] was 0.1 to 1 µM each time.

Broadly, the inhibition is how much of the control response was suppressed. Low values mean a response near the control, high ones a response far below the control. In assay [5] (10 μM ATP), `c1cc2c(NC3CC3)nc(Nc3ccc4cn[nH]c4c3)nc2[nH]1` [drawing 213] gave an inhibition at 0.3 µM of 41%. This compound showed an inhibition at 1 µM in assay [5] (1 μM compound, 10 μM ATP) of 77%.

As to `CC(=O)N1CCN(c2ccc(Nc3nc(N4CCC(CN)CC4)c4nc[nH]c4n3)cc2)CC1` [Example 15, 1-(4-(4-(6-(4-(aminomethyl)piperidin-1-yl)-9H-purin-2-ylamino)phenyl)piperazin-1-yl)ethanone], the half-inhibitory concentration (IC50) in assay [1] (setting [8]) was 0.01 to 0.1 µM; in assay [1] (Table 4, read-out: syk IC50), 0.01 to 0.1 µM; in assay [2], 50 µM.

As to `N#CCC(=O)N1CCCC(Nc2nc(Nc3ccc(C(N)=O)cc3)nc3[nH]ccc23)C1` (centres unmarked) [drawing 212], the half-maximal inhibitory concentration (IC50) in assay [5], in assay [6] and in assay [7] was 0.01 to 0.1 µM in each case.

With `CC(=O)N1CCN(c2ccc(Nc3nc(N4CCC(CN)CC4)c4cc[nH]c4n3)cc2)CC1` [drawing 208], the half-inhibitory concentration (IC50) in assay [5], in assay [6] and in assay [7] was 0.1 to 1 µM in each case.

`CN(C)C(=O)C1CCN(c2ccc(Nc3nc(NC4CC4)c4cc[nH]c4n3)cc2)CC1`: the inhibition at 0.3 µM in assay [5] (10 μM ATP) came out at 82%.

Take `CC(=O)N(C)c1ccc(Nc2ncc(F)c(N3CCC(CN)CC3)n2)cc1` [Example 29, N-(4-(4-(4-(aminomethyl)piperidin-1-yl)-5-fluoropyrimidin-2-ylamino)phenyl)-N-methylacetamide]: the IC50 in assay [1] (Table 4, read-out: syk IC50) was 0.01 to 0.1 µM; in assay [2], 0.316 µM.

Turning to `Cc1c[nH]c2nc(Nc3ccc4cn[nH]c4c3)nc(NC3CCC3)c12`, the IC50 is 0.1 to 1 µM in assay [5], 0.1 to 1 µM in assay [6] and > 1 µM in assay [7].

Regarding `CC(=O)N1CCN(c2ccc(Nc3nc(N4CCCC(C(N)=O)C4)c4cc[nH]c4n3)cc2)CC1` (centres unmarked) [Example 9, 1-(2-(4-(4-acetylpiperazin-1-yl)phenylamino)-7H-pyrrolo[2,3-d]pyrimidin-4-yl)piperidine-3-carboxamide], the concentration for half-maximal inhibition (IC50) was 0.1 to 1 µM in assay [1] (Table 4, read-out: syk IC50) and 12.3 µM in assay [2].

Regarding `CC(=O)N1CCN(c2ccc(Nc3nc(N4CCC(CN)CC4)c4cc[nH]c4n3)cc2)CC1` [Example 11, 1-(4-(4-(4-(4-(aminomethyl)piperidin-1-yl)-7H-pyrrolo[2,3-d]pyrimidin-2-ylamino)phenyl)piperazin-1-yl)ethanone], the IC50 is 0.001 to 0.01 µM in assay [1] (Table 4, read-out: syk IC50) and 5.28 µM in assay [2].

With `CC(=O)N1CCN(c2ccc(Nc3ncc(F)c(N4CCC(CN)CC4)n3)cc2)CC1` [Example 18, 1-(4-(4-(4-(4-(aminomethyl)piperidin-1-yl)-5-fluoropyrimidin-2-ylamino)phenyl)piperazin-1-yl)ethanone], the 50% inhibitory concentration (IC50) in assay [1] (Table 4, read-out: syk IC50) is 0.01 to 0.1 µM; in assay [2], 0.195 µM.

As to `NC(=O)C1CCCN(c2nc(Nc3ccc(N4CCNCC4)cc3)nc3[nH]ccc23)C1` (centres unmarked) [Example 8, 1-(2-(4-(piperazin-1-yl)phenylamino)-7H-pyrrolo[2,3-d]pyrimidin-4-yl)piperidine-3-carboxamide], the IC50 in assay [1] (Table 4, read-out: syk IC50) was 0.1 to 1 µM; in assay [2], 25.3 µM.

Turning to `NCC1CCN(c2nc(Nc3ccc(C(N)=O)cc3)ncc2F)CC1` [Example 31, 4-(4-(4-(aminomethyl)piperidin-1-yl)-5-fluoropyrimidin-2-ylamino)benzamide], the half-maximal inhibitory concentration (IC50) in assay [1] (Table 4, read-out: syk IC50) is 0.01 to 0.1 µM; in assay [2], 0.346 µM.

On to `NCC1CCN(c2nc(Nc3ccc4cn[nH]c4c3)ncc2F)CC1` [Example 16, N-(4-(4-(aminomethyl)piperidin-1-yl)-5-fluoropyrimidin-2-yl)-1H-indazol-6-amine], for which the concentration for half-maximal inhibition (IC50) in assay [1] (Table 4, read-out: syk IC50) was 0.01 to 0.1 µM; in assay [2] it was 0.295 µM.

Consider `CC(=O)c1c[nH]c2nc(Nc3ccc4cn[nH]c4c3)nc(NC3CC3)c12` [drawing 207], for which the IC50 in assay [5], in assay [6] and in assay [7] was > 1 µM each time.

As for `NCC1CCN(c2nc(Nc3ccc4c(c3)CCC(=O)N4)ncc2F)CC1` [Example 33, 6-(4-(4-(aminomethyl)piperidin-1-yl)-5-fluoropyrimidin-2-ylamino)-3,4-dihydroquinolin-2(1H)-one], the 50% inhibitory concentration (IC50) in assay [1] (Table 4, read-out: syk IC50) was 0.01 to 0.1 µM; in assay [2] it was 0.336 µM.

Turning to `CS(=O)(=O)N1CCN(c2ccc(Nc3nc(Nc4cccc(S(N)(=O)=O)c4)c4cc[nH]c4n3)cc2)CC1`, the IC50 in assay [5] is 0.1 to 1 µM; in assay [6] it was 0.1 to 1 µM; in assay [7], > 1 µM.

Turning to `NCC1CCN(c2nc(Nc3ccc(N4CCNCC4)cc3)nc3[nH]ccc23)CC1` [Example 10, 4-(4-(aminomethyl)piperidin-1-yl)-N-(4-(piperazin-1-yl)phenyl)-7H-pyrrolo[2,3-d]pyrimidin-2-amine], the half-maximal inhibitory concentration (IC50) in assay [1] (Table 4, read-out: syk IC50) is 0.001 to 0.01 µM; in assay [2], 33.2 µM.

Take `N#Cc1c[nH]c2nc(Nc3ccc4c(c3)CCC(=O)N4)nc(NC3CC3)c12` [drawing 209]: the IC50 in assay [5], in assay [6] and in assay [7] was 0.01 to 0.1 µM each time.

With `NC(=O)c1cnc(-[n+]2ccn(-c3ccc(N)cc3)c2)nc1NC1CC1` [Example 6, 1-(4-aminophenyl)-3-(5-carbamoyl-4-(cyclopropylamino)pyrimidin-2-yl)-1H-imidazol-3-ium], the concentration for half-maximal inhibition (IC50) in assay [1] (setting [8]) was > 1 µM.

The record behind these values is patent US9139581B2 (PORTOLA PHARMACEUTICALS, INC., priority 2008, dated 2015).
